From PubChem BioAssay (NCI) come the findings set out here.

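96-well plates; 48 h exposure; 5 concentrations. Endpoints by linear interpolation between flanking doses. Not reached: highest tested concentration assigned. GI50 marks 50% less growth. At the TGI there is no net growth.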 A value given as a limit tells only on which side of the number the result lay.

What all share (experiment): growth of human tumour cells (NCI), 48 h
For experiment [1], the system named is SN12C renal.
Experiment [2] relates to SF-539 CNS.
For experiment [3], the system named is DU-145 prostate.
Experiment [4] relates to UO-31 renal.
Experiment [5] has as its system DMS 114 small cell lung.
Experiment [6] concerns OVCAR-3 ovarian.
Experiment [7] deals with MDA-N.
Experiment [8] relates to EKVX NSCLC.
For experiment [9], the system named is A498 renal.
The test system of experiment [10] is HT29 colon.
Experiment [11] deals with SF-268 CNS.
In experiment [12] the test system is CCRF-CEM leukemia.
For experiment [13], the system named is SK-MEL-28 melanoma.
In experiment [14] the test system is COLO 205 colon.
Experiment [15] deals with KM20L2 colon.
Experiment [16] has as its system RXF-631 renal.
Experiment [17] has as its system SNB-78 CNS.
Experiment [18] relates to M19-MEL melanoma.

For the compound `Cc1c(CNc2ccc(C(=O)NC(CC(=O)O)C(=O)O)cc2)ccc2nc(N)nc(N)c12` (stereo unspecified), the TGI in experiment [1] was over 1000 µM; in experiment [2] it was over 1000 µM; in experiment [3], over 1000 µM; in experiment [4] it was over 1000 µM; in experiment [5], over 66.7 µM; in experiment [6], over 1000 µM. Moreover, the TGI in experiment [7], in experiment [8], in experiment [9], in experiment [10] and in experiment [11] was over 1000 µM throughout. The GI50 in experiment [6] was 34.6 µM; in experiment [8] it was over 1000 µM.
Turning to `Cc1cccc(C(C)C)c1NC(=O)CC1Sc2ccccc2NC1=O` (stereo unspecified), the TGI was over 100 µM in experiment [1]; over 100 µM in experiment [2]; over 100 µM in experiment [12]; over 100 µM in experiment [4]; 85 µM in experiment [5]; over 100 µM in experiment [6]. For the same compound, the TGI in experiment [8], in experiment [9], in experiment [10], in experiment [13], in experiment [11] and in experiment [14] was over 100 µM throughout. Besides, the TGI in experiment [15] and in [16] was over 100 µM throughout.
`CC(=O)Nc1ccc(-c2nc3ccccc3s2)cc1`: the TGI is 67.1 µM in experiment [2]; 40.1 µM in experiment [3]; over 100 µM in experiment [12]; over 100 µM in [4]; over 100 µM in experiment [8]; 38.4 µM in experiment [9]. Further, the TGI in [10], in experiment [13], in experiment [11] and in experiment [14] was over 100 µM throughout.
Turning to `CN1CCN(CN2C(=O)C3C4C=CC(C3C2=O)C2C(=O)N(CN3CCN(C)CC3)C(=O)C42)CC1` (stereo unspecified), the TGI in experiment [1] is over 100 µM; in experiment [2], over 83.3 µM; in experiment [3], over 31.6 µM; in experiment [12], over 100 µM; in experiment [4] it was over 100 µM; in experiment [6], over 100 µM. In addition, the TGI in [7] is over 100 µM; in [8], over 100 µM; in [10], 49.3 µM; in experiment [13] it was over 58 µM; in experiment [11], over 100 µM; in experiment [14], over 100 µM.
Take `CC(C)=CCc1c(O)ccc2ccc(=O)oc12`: the TGI is over 100 µM in experiment [1]; over 31.6 µM in experiment [2]; over 100 µM in [17]; over 100 µM in experiment [18]; over 100 µM in experiment [12]; over 95.1 µM in experiment [4]. Besides, the TGI in experiment [5] is 93.6 µM; in [6] it was over 100 µM; in experiment [8], over 100 µM; in experiment [9] it was over 100 µM; in [10], over 100 µM; in experiment [13] it was over 100 µM. Moreover, the TGI in experiment [11], in experiment [14] and in [15] was over 100 µM each time.
As to `COc1cccc2c1C(=O)c1c(O)c3c(c(O)c1C2=O)C[C@@](O)(C(=O)CO)C[C@@H]3OC1CC(N)C(OC)C(C)O1` (stereo partly specified), the TGI in experiment [1] is 0.644 µM; in [2], 0.449 µM; in experiment [17], 16.9 µM; in [3] it was over 100 µM; in [18], 0.237 µM; in [12], 0.176 µM. In addition, the TGI in experiment [4] came to 1.41 µM; in experiment [6], 10.6 µM; in [7] it was 36.2 µM; in experiment [8], 9.35 µM; in experiment [9] it was 0.582 µM; in [10], 1.66 µM. In addition, the TGI in experiment [13] was determined as 1.9 µM; in experiment [11], 1.97 µM; in [14] it was 1.94 µM; in experiment [15], 4.83 µM; in [16], 0.747 µM.
Turning to `CCOC(=O)c1csc(NC(=O)CN2CCN(C)CC2)n1`, the TGI in experiment [3], in [12], in experiment [4], in [6], in experiment [7] and in [8] was over 100 µM each time. Also, the TGI in [9], in [10], in experiment [13] and in [14] was over 100 µM each time.
Take `CC#C[P+](c1ccccc1)(c1ccccc1)c1ccccc1`: the TGI in experiment [1] is 4.13 µM; in experiment [2] it was 10.1 µM; in experiment [17] it was 22.9 µM; in experiment [18], 11.8 µM; in [12], 3.57 µM; in [4], 76.4 µM. Moreover, the TGI was 9.95 µM in [5]; 14.3 µM in [6]; 22.5 µM in experiment [8]; over 100 µM in experiment [9]; 12.9 µM in experiment [10]; 25 µM in experiment [13]. The figures for the TGI in experiment [11], in experiment [14] and in experiment [15] were 8.44 µM, 2.77 µM and 21.3 µM, respectively.
For `COc1cc2c3c(c4cc(OC)c(OC)cc4c2cc1OC)C(=O)C1CCC(=O)N1C3` (stereo unspecified), the TGI in experiment [2] was 39.8 µM; in [3] it was over 100 µM; in [12], 30.8 µM; in experiment [6], over 100 µM; in experiment [9], over 100 µM; in experiment [13], over 100 µM. Further, the TGI in experiment [11] and in experiment [14] was over 100 µM in each case.
As to `CCCC(O)C(NC(=O)CCl)C(=O)O` (stereo unspecified), the TGI in [1], in [2], in [17], in experiment [18], in [12] and in [4] was over 100 µM each time. The TGI in [5], in experiment [6], in experiment [8], in experiment [9], in experiment [10] and in experiment [13] was over 100 µM throughout. Further, the TGI in [11], in experiment [14] and in experiment [15] was over 100 µM throughout.
On to `COc1cc2c(cc1O)C1C(O)C(O)C=C3CCN(C2)C31` (stereo unspecified), for which the TGI in experiment [1] came to 14.6 µM; in experiment [2] it was 4.68 µM; in experiment [17], 9.27 µM; in experiment [18] it was 8.84 µM; in experiment [12], 72.6 µM; in experiment [4], 9.04 µM. Besides, the TGI in experiment [5] came out at 4.33 µM; in experiment [6], 8.12 µM; in experiment [8], 14.8 µM; in experiment [10], 18.9 µM; in [13], 13.9 µM; in [11] it was 10.5 µM. Also, the TGI was determined as 3.14 µM in experiment [14], 18.3 µM in experiment [15] and 28.2 µM in experiment [16].
Turning to `NCCCNCCCCNCCCN`, the TGI in experiment [1] was 15.4 µM; in [2] it was 34.3 µM; in experiment [3] it was 23.2 µM; in [12], 5.72 µM; in experiment [4], 5.02 µM; in experiment [6] it was over 20.1 µM. Also, the TGI in experiment [7] was 41.5 µM; in experiment [8], 38.6 µM; in [9], over 100 µM; in experiment [10], 76.5 µM; in experiment [11], over 92.9 µM; in experiment [14] it was 11.8 µM.
